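48-hour exposure; five concentrations; linearly interpolated endpoints. Here, GI50 denotes the concentration required for 50% inhibition of growth. At the TGI there is no net growth.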
Legend:
Experiment in all cases: DTP human tumour cell line panel, 48 h
[1] = tested on: 786-0 renal
[2] = tested on: A498 renal
[3] = tested on: A549 NSCLC
[4] = tested on: ACHN renal
[5] = tested on: BT-549 breast
[6] = tested on: CAKI-1 renal
[7] = tested on: CCRF-CEM leukemia
[8] = tested on: COLO 205 colon
[9] = tested on: DU-145 prostate
[10] = tested on: EKVX NSCLC
[11] = tested on: HCC-2998 colon
[12] = tested on: HCT-15 colon
[13] = tested on: HL-60(TB) leukemia
[14] = tested on: HOP-62 NSCLC
[15] = tested on: HOP-92 NSCLC
[16] = tested on: HS 578T breast
[17] = tested on: HT29 colon
[18] = tested on: IGROV1 ovarian
[19] = tested on: K-562 leukemia
[20] = tested on: KM12 colon
[21] = tested on: LOX IMVI melanoma
[22] = tested on: M14 melanoma
[23] = tested on: MALME-3M melanoma
[24] = tested on: MCF7 breast
[25] = tested on: MDA-MB-231 breast
[26] = tested on: MDA-MB-435
[27] = tested on: MOLT-4 leukemia
[28] = tested on: NCI-H226 lung
[29] = tested on: NCI-H23 lung
[30] = tested on: NCI-H522 lung
[31] = tested on: NCI/ADR-RES ovarian
[32] = tested on: OVCAR-3 ovarian
[33] = tested on: OVCAR-4 ovarian
[34] = tested on: OVCAR-5 ovarian
[35] = tested on: OVCAR-8 ovarian
[36] = tested on: PC-3 prostate
[37] = tested on: RPMI-8226 leukemia
[38] = tested on: RXF 393 renal
[39] = tested on: SF-268 CNS
[40] = tested on: SF-295 CNS
[41] = tested on: SF-539 CNS
[42] = tested on: SK-MEL-2 melanoma
[43] = tested on: SK-MEL-5 melanoma
[44] = tested on: SK-OV-3 ovarian
[45] = tested on: SN12C renal
[46] = tested on: SNB-19 CNS
[47] = tested on: SNB-75 CNS
[48] = tested on: SR leukemia
[49] = tested on: SW-620 colon
[50] = tested on: T-47D breast
[51] = tested on: TK-10 renal
[52] = tested on: U251 CNS
[53] = tested on: UACC-257 melanoma
[54] = tested on: UACC-62 melanoma
[55] = tested on: UO-31 renal
[56] = tested on: HCT-116 colon
[57] = tested on: NCI-H460 lung
[58] = tested on: SK-MEL-28 melanoma

For `COc1ccc(-n2c(N)c(C#N)c(C#N)c2-c2cccc([N+](=O)[O-])c2)cc1`, the TGI [1] was over 100 µM, the TGI [2] was over 100 µM and the TGI [3] was 68.7 µM. For the same molecule, the TGI [4] was over 100 µM, the TGI [5] was over 100 µM and the TGI [6] was over 100 µM. It also gave a TGI [7] of over 100 µM, a TGI [8] of over 100 µM and a TGI [9] of over 100 µM. It also gave a TGI [10] of over 100 µM, a TGI [11] of over 100 µM and a TGI [12] of over 100 µM. It also gave a TGI [13] of over 100 µM, a TGI [14] of over 100 µM and a TGI [15] of over 100 µM. The TGI [16] was over 100 µM, the TGI [17] was over 100 µM and the TGI [18] was over 100 µM. For the same molecule, the TGI [19] was over 100 µM, the TGI [20] was over 100 µM and the TGI [21] was over 100 µM. The TGI [22] was over 100 µM, the TGI [23] was over 100 µM and the TGI [24] was over 100 µM. The TGI [25] was over 100 µM, the TGI [26] was over 100 µM and the TGI [27] was 44.8 µM. The TGI [28] was over 100 µM, the TGI [29] was over 100 µM and the TGI [30] was over 100 µM. For the same molecule, the TGI [31] was over 100 µM, the TGI [32] was over 100 µM and the TGI [33] was over 100 µM. The TGI [34] was over 100 µM, the TGI [35] was over 100 µM and the TGI [36] was over 100 µM. For the same molecule, the TGI [37] was over 100 µM, the TGI [38] was 65.1 µM and the TGI [39] was over 100 µM. It also gave a TGI [40] of over 100 µM, a TGI [41] of over 100 µM and a TGI [42] of 8.68 µM. The TGI [43] was over 100 µM, the TGI [44] was over 100 µM and the TGI [45] was over 100 µM. The TGI [46] was over 100 µM, the TGI [47] was over 100 µM and the TGI [48] was over 100 µM. It also gave a TGI [49] of over 100 µM, a TGI [50] of over 100 µM and a TGI [51] of over 100 µM. It also gave a TGI [52] of over 100 µM, a TGI [53] of over 100 µM and a TGI [54] of over 100 µM. The TGI [55] was over 100 µM.
In the case of `CC12OC(CC(O)C1O)n1c3ccccc3c3c4c(c5c6ccccc6n2c5c31)C(=O)N(CCN1CCCC1)C4=O` (centres undefined), the GI50 [1] is reported as 1.29 µM, the TGI [1] is reported as 6.36 µM and the GI50 [2] is reported as 1.5 µM. It also gave a TGI [2] of 7.5 µM, a GI50 [3] of 0.282 µM and a TGI [3] of 6.17 µM. The GI50 [4] was 0.336 µM, the TGI [4] was 2.34 µM and the GI50 [5] was 3.85 µM. It also gave a TGI [5] of 11.5 µM, a GI50 [6] of 1.41 µM and a TGI [6] of 9.01 µM. The GI50 [7] was 0.936 µM, the TGI [7] was 10.7 µM and the GI50 [8] was 0.377 µM. It also gave a TGI [8] of 6.16 µM, a GI50 [9] of 1.06 µM and a TGI [9] of 5.82 µM. For the same molecule, the GI50 [10] was 1.67 µM, the TGI [10] was 9.64 µM and the GI50 [11] was 3.96 µM. It also gave a TGI [11] of 10.8 µM, a GI50 [56] of 0.321 µM and a TGI [56] of 6.35 µM. It also gave a GI50 [12] of 1 µM, a TGI [12] of 6.77 µM and a GI50 [13] of 0.562 µM. For the same molecule, the TGI [13] was 8.7 µM, the GI50 [14] was 0.424 µM and the TGI [14] was 5.71 µM. The GI50 [15] was 3.85 µM, the TGI [15] was 10.3 µM and the GI50 [16] was 3.05 µM. It also gave a TGI [16] of 13.8 µM, a GI50 [17] of 0.434 µM and a TGI [17] of 7.07 µM. The GI50 [18] was 0.951 µM, the TGI [18] was 10.8 µM and the GI50 [19] was 0.68 µM. The TGI [19] was 19.4 µM, the GI50 [20] was 1.3 µM and the TGI [20] was 8.68 µM. The GI50 [21] was 0.308 µM, the TGI [21] was 1.45 µM and the GI50 [22] was 1.23 µM. The TGI [22] was 7.64 µM, the GI50 [23] was 1.3 µM and the TGI [23] was 8.41 µM. The GI50 [24] was 0.199 µM, the TGI [24] was 5.88 µM and the GI50 [25] was 3.38 µM. For the same molecule, the TGI [25] was 11.2 µM, the GI50 [26] was 1.7 µM and the TGI [26] was 8.11 µM. For the same molecule, the GI50 [27] was 0.197 µM, the TGI [27] was 16.5 µM and the GI50 [28] was 1.42 µM. For the same molecule, the TGI [28] was 11.4 µM, the GI50 [29] was 1.24 µM and the TGI [29] was 7.95 µM. The GI50 [57] was 0.161 µM, the TGI [57] was 1.06 µM and the GI50 [30] was 0.606 µM. For the same molecule, the TGI [30] was 5.4 µM, the GI50 [31] was 6.31 µM and the TGI [31] was 14.5 µM. It also gave a GI50 [32] of 1.77 µM, a TGI [32] of 8.95 µM and a GI50 [33] of 1.88 µM. The TGI [33] was 12.3 µM, the GI50 [34] was 2.25 µM and the TGI [34] was 14.9 µM. For the same molecule, the GI50 [35] was 1.1 µM, the TGI [35] was 9.12 µM and the GI50 [36] was 1.79 µM. For the same molecule, the TGI [36] was 9.13 µM, the GI50 [37] was 1.32 µM and the TGI [37] was 4.43 µM. The GI50 [38] was 1.23 µM, the TGI [38] was 7.25 µM and the GI50 [39] was 0.789 µM. The TGI [39] was 8.47 µM, the GI50 [40] was 0.291 µM and the TGI [40] was 5.96 µM. The GI50 [42] was 5.16 µM, the TGI [42] was 12.9 µM and the GI50 [58] was 2.24 µM. The TGI [58] was 9.7 µM, the GI50 [43] was 1.22 µM and the TGI [43] was 7.12 µM. The GI50 [44] was 1.57 µM, the TGI [44] was 6.99 µM and the GI50 [45] was 0.577 µM. It also gave a TGI [45] of 6.64 µM, a GI50 [46] of 1.25 µM and a TGI [46] of 9.29 µM. For the same molecule, the GI50 [47] was 0.879 µM, the TGI [47] was 6.71 µM and the GI50 [48] was 0.149 µM. It also gave a TGI [48] of 6.08 µM, a GI50 [49] of 0.31 µM and a TGI [49] of 7.22 µM. The GI50 [50] was 0.868 µM, the TGI [50] was 7.94 µM and the GI50 [51] was 1.21 µM. For the same molecule, the TGI [51] was 10.4 µM, the GI50 [52] was 0.488 µM and the TGI [52] was 6.51 µM. The GI50 [53] was 3.54 µM, the TGI [53] was 11.8 µM and the GI50 [54] was 0.513 µM. It also gave a TGI [54] of 2.58 µM, a GI50 [55] of 1.5 µM and a TGI [55] of 9.95 µM.
